Data taken from patent US8192962B2, “Processes for detecting toxic substances” (Daikin Industries, Ltd., priority 2001, dated 2012).

System: Transport facilitation protein genes
Assay: DNA chip mRNA expression in yeast, transport facilitation protein genes (Table 5)
Assay type: cell-based, Saccharomyces cerevisiae S288C
Procedure: Yeast (Saccharomyces cerevisiae S288C (α SUC2mal mel gap2 CUP1)) were incubated at 25° C. on YPD medium (yeast extract 1%, polypepton 2%, glucose 2%). One of toxic chemical substances was added to the cells at logarithmic growth phase, and the cells were further incubated for two hours. Cells were cultured without any chemical substance in the same condition, and were used as control. Concentrations of the chemical substances were defined to inhibit the growth of the yeast but not lead to death.
After completion of the incubation, the culture was centrifuged to collect the cells. To the cells, sodium acetate buffer (50 mM sodium acetate, 10 mM EDTA, 1% SDS) was added, and the mixture was shaken at 65° C. for five minutes, followed by returning to room temperature, and obtaining the supernatant, of which the procedures were repeated two times. To the supernatant, ½ amount of a solution of phenol/chloroform was added, and the mixture was centrifuged to give a supernatant, which was added with an equal amount of chloroform, and the mixture was centrifuged to give a supernatant. To the supernatant, an equal amount of isopropanol containing 0.3 M sodium acetate was added, and the mixture was allowed to stand at room temperature for 30 minutes, after which the mixture was centrifuged to give a sediment of the whole RNAs. Seventy % ethanol was added to the sediment, and the mixture was again centrifuged to give a sediment, which was then dried and dissolved in water. mRNA was isolated from the whole RNAs as followings. In view of the fact that a poly A chain is attached to the 3′ terminus of mRNA, a polynucleotide having a poly T structure which was immobilized on the surface of latex beads was used to trap the mRNA, and then the mRNA was washed and eluted with spine column (Oligotex-dT30<Super>mRNA Purification Kit, Takara). Reverse transcription of the mRNA was conducted with a reverse transcriptase (Super Script II Reverse Transcriptase; catalogue No. 18064-014, GibcoBRL) using fluorescence-labeled nucleotides to give cDNAs that were introduced with Cy3-dUTP or Cy5-dUTP during the reverse transcription.
The labeled cDNAs were dissolved in TE buffer (10mM Tris-HCl/1 mM EDTA, pH8.0), and the solution was dropped on the DNA chip containing the whole genes of yeast (DNA Chip Research Inc. Japan) so that the cDNAs were hybridized on the DNA chip at 65° C. for over 12 hours. The fluoresces intensity of the DNA chip was read with a scanner, and the ratio relative to the fluorescence intensity resulting from the absence of chemical substance was estimated as the following, which is shown in Tables 1 to 9: […]

[Cl][Pb][Cl] [(4), PbCl2]
The level of expressed mRNA in the presence of chemical substance/The level of expressed mRNA in the absence of chemical substance (yeast gene YGR260W): 0.8
The level of expressed mRNA in the presence of chemical substance/The level of expressed mRNA in the absence of chemical substance (yeast gene YGR281W): 2.2
The level of expressed mRNA in the presence of chemical substance/The level of expressed mRNA in the absence of chemical substance (yeast gene YHL035C): 1.9
The level of expressed mRNA in the presence of chemical substance/The level of expressed mRNA in the absence of chemical substance (yeast gene YHL040C): 0.4
The level of expressed mRNA in the presence of chemical substance/The level of expressed mRNA in the absence of chemical substance (yeast gene YHL047C): 1.0
The level of expressed mRNA in the presence of chemical substance/The level of expressed mRNA in the absence of chemical substance (yeast gene YHR026W): 1.0
The level of expressed mRNA in the presence of chemical substance/The level of expressed mRNA in the absence of chemical substance (yeast gene YHR092C): 2.5
The level of expressed mRNA in the presence of chemical substance/The level of expressed mRNA in the absence of chemical substance (yeast gene YHR094C): 1.6
The level of expressed mRNA in the presence of chemical substance/The level of expressed mRNA in the absence of chemical substance (yeast gene YHR175W): 1.5
The level of expressed mRNA in the presence of chemical substance/The level of expressed mRNA in the absence of chemical substance (yeast gene YIL006W): 2.9
The level of expressed mRNA in the presence of chemical substance/The level of expressed mRNA in the absence of chemical substance (yeast gene YIL022W): 1.6
The level of expressed mRNA in the presence of chemical substance/The level of expressed mRNA in the absence of chemical substance (yeast gene YIL056W): 1.4
The level of expressed mRNA in the presence of chemical substance/The level of expressed mRNA in the absence of chemical substance (yeast gene YIL088C): 1.3
The level of expressed mRNA in the presence of chemical substance/The level of expressed mRNA in the absence of chemical substance (yeast gene YJL034W): 0.8
The level of expressed mRNA in the presence of chemical substance/The level of expressed mRNA in the absence of chemical substance (yeast gene YJL212C): 0.5
The level of expressed mRNA in the presence of chemical substance/The level of expressed mRNA in the absence of chemical substance (yeast gene YJL219W): 1.6
The level of expressed mRNA in the presence of chemical substance/The level of expressed mRNA in the absence of chemical substance (yeast gene YJR077C): 1.6
The level of expressed mRNA in the presence of chemical substance/The level of expressed mRNA in the absence of chemical substance (yeast gene YJR106W): 1.1
The level of expressed mRNA in the presence of chemical substance/The level of expressed mRNA in the absence of chemical substance (yeast gene YJR121W): 1.0
The level of expressed mRNA in the presence of chemical substance/The level of expressed mRNA in the absence of chemical substance (yeast gene YKL016C): 1.7
The level of expressed mRNA in the presence of chemical substance/The level of expressed mRNA in the absence of chemical substance (yeast gene YKL146W): 0.9
The level of expressed mRNA in the presence of chemical substance/The level of expressed mRNA in the absence of chemical substance (yeast gene YKR039W): 1.7
The level of expressed mRNA in the presence of chemical substance/The level of expressed mRNA in the absence of chemical substance (yeast gene YKR067W): 2.5
The level of expressed mRNA in the presence of chemical substance/The level of expressed mRNA in the absence of chemical substance (yeast gene YLL028W): 0.5
The level of expressed mRNA in the presence of chemical substance/The level of expressed mRNA in the absence of chemical substance (yeast gene YLR081W): 3.6
The level of expressed mRNA in the presence of chemical substance/The level of expressed mRNA in the absence of chemical substance (yeast gene YLR295C): 1.7
The level of expressed mRNA in the presence of chemical substance/The level of expressed mRNA in the absence of chemical substance (yeast gene YLR348C): 1.2
The level of expressed mRNA in the presence of chemical substance/The level of expressed mRNA in the absence of chemical substance (yeast gene YLR378C): 0.5
The level of expressed mRNA in the presence of chemical substance/The level of expressed mRNA in the absence of chemical substance (yeast gene YMR011W): 5.5
The level of expressed mRNA in the presence of chemical substance/The level of expressed mRNA in the absence of chemical substance (yeast gene YMR162C): 2.0
The level of expressed mRNA in the presence of chemical substance/The level of expressed mRNA in the absence of chemical substance (yeast gene YMR203W): 1.4
The level of expressed mRNA in the presence of chemical substance/The level of expressed mRNA in the absence of chemical substance (yeast gene YNL055C): 2.0
The level of expressed mRNA in the presence of chemical substance/The level of expressed mRNA in the absence of chemical substance (yeast gene YNL259C): 1.2
The level of expressed mRNA in the presence of chemical substance/The level of expressed mRNA in the absence of chemical substance (yeast gene YNR072W): 0.7
The level of expressed mRNA in the presence of chemical substance/The level of expressed mRNA in the absence of chemical substance (yeast gene YOL119C): 2.3
The level of expressed mRNA in the presence of chemical substance/The level of expressed mRNA in the absence of chemical substance (yeast gene YOL156W): 1.1
The level of expressed mRNA in the presence of chemical substance/The level of expressed mRNA in the absence of chemical substance (yeast gene YOL163W): 3.3
The level of expressed mRNA in the presence of chemical substance/The level of expressed mRNA in the absence of chemical substance (yeast gene YOR035C): 1.2
The level of expressed mRNA in the presence of chemical substance/The level of expressed mRNA in the absence of chemical substance (yeast gene YOR130C): 1.0
The level of expressed mRNA in the presence of chemical substance/The level of expressed mRNA in the absence of chemical substance (yeast gene YOR153W): 1.1
The level of expressed mRNA in the presence of chemical substance/The level of expressed mRNA in the absence of chemical substance (yeast gene YOR273C): 1.0
The level of expressed mRNA in the presence of chemical substance/The level of expressed mRNA in the absence of chemical substance (yeast gene YOR316C): 1.5
The level of expressed mRNA in the presence of chemical substance/The level of expressed mRNA in the absence of chemical substance (yeast gene YOR328W): 1.0
The level of expressed mRNA in the presence of chemical substance/The level of expressed mRNA in the absence of chemical substance (yeast gene YOR332W): 1.0
The level of expressed mRNA in the presence of chemical substance/The level of expressed mRNA in the absence of chemical substance (yeast gene YOR348C): 2.0
The level of expressed mRNA in the presence of chemical substance/The level of expressed mRNA in the absence of chemical substance (yeast gene YPL036W): 0.9
The level of expressed mRNA in the presence of chemical substance/The level of expressed mRNA in the absence of chemical substance (yeast gene YPL134C): 1.6
The level of expressed mRNA in the presence of chemical substance/The level of expressed mRNA in the absence of chemical substance (yeast gene YPL271W): 1.2
The level of expressed mRNA in the presence of chemical substance/The level of expressed mRNA in the absence of chemical substance (yeast gene YPR192W): 5.0
The level of expressed mRNA in the presence of chemical substance/The level of expressed mRNA in the absence of chemical substance (yeast gene YPR194C): 2.9
